The values that follow come from patent publication US20230159509A1 (Amathus Therapeutics, Inc., priority 2020, published 2023).

In this test the target is T1, TRAP1 enzyme (Homo sapiens, UniProt Q12931).
T1 construct: 150 nM Trap1 enzyme was incubated with various concentrations of the test compound
T1 sequence (Q12931 60-704): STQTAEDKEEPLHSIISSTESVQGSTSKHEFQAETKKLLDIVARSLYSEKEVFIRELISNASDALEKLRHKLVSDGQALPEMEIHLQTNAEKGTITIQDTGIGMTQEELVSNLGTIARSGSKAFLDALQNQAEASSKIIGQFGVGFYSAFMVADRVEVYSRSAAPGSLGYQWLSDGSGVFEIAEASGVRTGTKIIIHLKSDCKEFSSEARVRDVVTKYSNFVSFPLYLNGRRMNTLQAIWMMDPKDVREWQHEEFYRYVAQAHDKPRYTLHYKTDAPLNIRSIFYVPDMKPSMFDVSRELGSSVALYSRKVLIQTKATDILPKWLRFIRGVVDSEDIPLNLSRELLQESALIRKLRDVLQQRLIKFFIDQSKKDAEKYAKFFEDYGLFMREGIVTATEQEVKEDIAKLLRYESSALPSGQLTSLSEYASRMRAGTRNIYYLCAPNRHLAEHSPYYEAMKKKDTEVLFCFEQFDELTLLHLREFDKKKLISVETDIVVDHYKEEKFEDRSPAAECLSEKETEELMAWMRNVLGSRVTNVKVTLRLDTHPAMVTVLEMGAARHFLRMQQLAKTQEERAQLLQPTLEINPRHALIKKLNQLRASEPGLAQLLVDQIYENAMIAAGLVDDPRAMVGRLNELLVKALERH
As to the kind of experiment: ADP Glo assay of TRAP1 ATPase activity. It counts as biochemical. As to conditions: for EC50: concentration for half maximal activation, read-out: ADP GLO DRC: GeoMean EC50; for Emax: maximal percent activation, read-out: ADP GLO DRC: Mean Emax. On the procedure: Potency of test compounds to modulate the ATPase activity of TRAP1 enzyme was evaluated using ADP Glo assay. The assay is based on quantification of the ADP generated from ATP in the ATPase reaction. The assay is performed in two steps; first, after the ATPase reaction an equal volume of ADP-Glo™ Reagent is added to terminate the ATPase reaction and deplete the remaining ATP. Second, the Kinase Detection Reagent is added to simultaneously convert ADP to ATP and allow the newly synthesized ATP to be measured using a luciferase/luciferin reaction.
All the assays were carried out in a 384-well Proxiplate. The buffer used was 25 mM Pipes pH-7.5, 40 mM KCl, 0.05 mM MgCl2, 0.025% BSA, 0.316 mM EGTA, 0.003% Empigen, 0.01% Igepal. 150 nM Trap1 enzyme was incubated with various concentrations of the test compound (0.79 μM-100 μM) at 37° C. for 30 mins (except in blank wells). 20 μM ATP was added to each well to start the reaction. The plate was spun for 1 min at 1200 rpm and then incubated at 37° C. for 60 mins. 5 μl of ADP Glo reagent was added to all the wells and spun the plate for 1 min at 1200 rpm and kept it on a shaker at ambient temperature for 60 mins. 10 μl of kinase detection mix was added to all the wells and the plate was read for Luminescence at 495 nm. The amount of ADP released was estimated from ATP/ADP standard curve generated at the same experimental conditions. Emax (Maximal percent activation) and EC50 (concentration for half maximal activation) were estimated by fitting the dose response data to a sigmoidal curve fitting equation using Graphpad Prism software V. 8.
(ADP-Glo turns the ADP formed in a reaction into a luminescent signal.)

For `COc1ncc(NC(=O)c2coc(-c3ccccc3)n2)cc1S(=O)(=O)Nc1c(C)cccc1F` [compound 1485, N-(5-(N-(2-fluoro-6-methylphenyl)sulfamoyl)-6-methoxypyridin-3-yl)-2-phenyloxazole-4-carboxamide], the EC50 (usually the concentration needed to bring the measured effect to its halfway point) was less than 10 µM and the Emax (as a rule, the size of the effect at its maximum, as opposed to the concentration needed) was in the range of 119 to 159%.

Turning to `COc1ncc(NC(=O)c2csc3c2CCCCC3)cc1S(=O)(=O)Nc1c(C)cccc1C` [compound 1486, N-(5-(N-(2,6-dimethylphenyl)sulfamoyl)-6-methoxypyridin-3-yl)-5,6,7,8-tetrahydro-4H-cyclohepta[b]thiophene-3-carboxamide], the EC50 was less than 10 µM and the Emax lay in the range of 160 to 199%.

For `COc1ncc(NC(=O)c2ncc(-c3ccccc3)o2)cc1S(=O)(=O)Nc1cc(F)c(F)cc1F` [compound 1503], the EC50 was 20 to 100 µM and the Emax is 160 to 199%.

With `COc1ncc(NC(=O)c2ncc(-c3ccccc3)o2)cc1S(=O)(=O)Nc1cc2ccccc2nc1C` [compound 1511], the EC50 lay within 20 to 100 µM and the Emax lay in the range of 119 to 159%.

For `COc1ncc(NC(=O)c2ncc(-c3ccccc3)o2)cc1S(=O)(=O)Nc1cccc2cncc(C)c12` [compound 1513], the 50% effective concentration (EC50) was less than 10 µM and the Emax fell in the range of 160 to 199%.

With `COc1ncc(NC(=O)c2ncc(-c3ccccc3)o2)cc1S(=O)(=O)Nc1ccc(F)cc1C(C)C` [compound 1514], the concentration for a half-maximal effect (EC50) is less than 10 µM and the Emax is 160 to 199%.

Regarding `COc1ncc(NC(=O)c2ncc(-c3ccccc3)o2)cc1S(=O)(=O)Nc1sc2c(c1C#N)CCCC2` [compound 1519], the half-maximal effective concentration (EC50) fell in the range of 10 to 20 µM and the Emax was in the range of 160 to 199%.

With `COc1ncc(NC(=O)c2ncc(-c3ccccc3)o2)cc1S(=O)(=O)Nc1ccc2cnoc2c1` [compound 1525], the EC50 was in the range of 20 to 100 µM and the Emax is 200 to 300%.

With `COc1ncc(NC(=O)c2ncc(-c3ccccc3)o2)cc1S(=O)(=O)Nc1cc(F)c(C#N)cc1F` [compound 1538], the concentration giving a half-maximal response (EC50) lay within 20 to 100 µM and the Emax lay within 119 to 159%.

On to `CCc1cccc2sc(NS(=O)(=O)c3cc(NC(=O)c4ncc(-c5ccccc5)o4)cnc3OC)nc12` [compound 1552], for which the EC50 lay in the range of 20 to 100 µM and the Emax fell in the range of 119 to 159%.

On to `COc1ncc(NC(=O)c2ncc(-c3ccccc3)o2)cc1S(=O)(=O)Nc1cc(-c2ccccc2C)nn1C` [compound 1567], for which the EC50 lay in the range of 20 to 100 µM and the Emax lay within 200 to 300%.

For the compound `COc1ncc(NC(=O)c2ncc(-c3ccccc3)o2)cc1S(=O)(=O)Nc1cc(-c2ccc(C)cc2)nn1C` [compound 1568], the EC50 was 20 to 100 µM and the Emax was 200 to 300%.

Take `COc1ncc(NC(=O)c2ncc(-c3ccccc3)o2)cc1S(=O)(=O)Nc1cc(C)n(C(C)C)n1` [compound 1571]: the EC50 is 10 to 20 µM and the Emax fell in the range of 160 to 199%.

For `COc1ncc(NC(=O)c2ncc(-c3ccccc3)o2)cc1S(=O)(=O)Nc1cccc2cnc(C)cc12` [compound 1624], the EC50 lay in the range of 10 to 20 µM and the Emax fell in the range of 160 to 199%.

With `COc1ncc(NC(=O)c2ncc(-c3ccccc3)o2)cc1S(=O)(=O)Nc1cc(C2CCCCC2)no1` [compound 1640], the EC50 lay within 10 to 20 µM and the Emax was in the range of 160 to 199%.

`CCCC(C)c1cc(NS(=O)(=O)c2cc(NC(=O)c3ncc(-c4ccccc4)o3)cnc2OC)on1` (stereo not drawn) [compound 1648]: the EC50 fell in the range of 20 to 100 µM and the Emax is 119 to 159%.

Regarding `COc1ncc(NC(=O)c2ncc(-c3ccccc3)o2)cc1S(=O)(=O)Nc1c(C)c(-c2ccccc2)nn1C` [compound 1661], the EC50 fell in the range of 20 to 100 µM and the Emax was 160 to 199%.

In the case of `COc1cccc(OC)c1NS(=O)(=O)c1cc(NC(=O)c2ncc(-c3ccccc3)o2)cnc1OC` [compound 1706], the concentration for a half-maximal effect (EC50) is 10 to 20 µM and the maximal response (Emax) fell in the range of 119 to 159%.

For `COc1ncc(NC(=O)c2csc(-c3ccccc3)n2)cc1S(=O)(=O)Nc1c(C)cnn1C` [compound 1729], the EC50 lay within 20 to 100 µM and the Emax is 119 to 159%.

For `COc1ncc(NC(=O)c2csc(-c3ccccc3)n2)cc1S(=O)(=O)Nc1cc(C(F)(F)F)n[nH]1` [compound 1746], the EC50 lay in the range of 20 to 100 µM and the Emax was in the range of 200 to 300%.

Turning to `COc1ncc(NC(=O)c2csc(-c3ccccc3)n2)cc1S(=O)(=O)Nc1cc(C)n(C(C)C)n1` [compound 1754], the EC50 was in the range of 10 to 20 µM and the Emax lay in the range of 160 to 199%.

Take `COCCOc1cc(NS(=O)(=O)c2cc(NC(=O)c3csc(-c4ccccc4)n3)cnc2OC)ccn1` [compound 1760]: the EC50 was in the range of 20 to 100 µM and the Emax lay in the range of 119 to 159%.

In the case of `COc1ncc(NC(=O)c2csc(-c3ccccc3)n2)cc1S(=O)(=O)Nc1cccn2nc(C)nc12` [compound 1768], the EC50 is 20 to 100 µM and the Emax lay in the range of 200 to 300%.

In the case of `CCOc1cc(NS(=O)(=O)c2cc(NC(=O)c3csc(-c4ccccc4)n3)cnc2OC)ccn1` [compound 1773], the EC50 lay in the range of 20 to 100 µM and the Emax was 119 to 159%.

As for `COc1ncc(NC(=O)c2csc(-c3ccccc3)n2)cc1S(=O)(=O)Nc1ccnc2cccnc12` [compound 1779], the EC50 was 20 to 100 µM and the maximum response (Emax) lay within 119 to 159%.

On to `COc1ncc(NC(=O)c2csc(-c3ccccc3)n2)cc1S(=O)(=O)Nc1ccc(C)nc1C` [compound 1780], for which the EC50 was in the range of 20 to 100 µM and the Emax lay within 119 to 159%.

As to `COc1ncc(NC(=O)c2csc(-c3ccccc3)n2)cc1S(=O)(=O)Nc1cc(C)no1` [compound 1784], the concentration for a half-maximal effect (EC50) fell in the range of 20 to 100 µM and the Emax fell in the range of 119 to 159%.

Regarding `COc1ncc(NC(=O)c2csc(-c3ccccc3)n2)cc1S(=O)(=O)Nc1ccc(C#N)nc1` [compound 1785], the 50% effective concentration (EC50) lay in the range of 20 to 100 µM and the maximum response (Emax) was in the range of 200 to 300%.

Consider `COc1ncc(NC(=O)c2csc(-c3ccccc3)n2)cc1S(=O)(=O)Nc1cc(C)cnc1C` [compound 1792], for which the EC50 is 20 to 100 µM and the Emax fell in the range of 119 to 159%.

For `COc1ncc(NC(=O)c2ncc(-c3ccccc3)o2)cc1S(=O)(=O)Nc1c(C(C)C)ccnc1C(C)C` [compound 1808], the EC50 was 10 to 20 µM and the Emax was 200 to 300%.

On to `CNc1ncc(C(F)(F)F)cc1NS(=O)(=O)c1cc(NC(=O)c2ncc(-c3ccccc3)o2)cnc1OC` [compound 1824], for which the EC50 was 20 to 100 µM and the Emax lay within 160 to 199%.

Take `COc1ncc(NC(=O)c2csc(-c3ccccc3)n2)cc1S(=O)(=O)Nc1nc(C(C)(C)C)ns1` [compound 1839]: the concentration giving a half-maximal response (EC50) lay within 10 to 20 µM and the Emax lay in the range of 200 to 300%.

As to `COc1cc(NS(=O)(=O)c2cc(NC(=O)c3csc(-c4ccccc4)n3)cnc2OC)ccn1` [compound 1878], the concentration giving a half-maximal response (EC50) lay within 20 to 100 µM and the maximum response (Emax) was 119 to 159%.

With `COc1ncc(NC(=O)c2csc(-c3ccccc3)n2)cc1S(=O)(=O)Nc1ccnc(C(F)(F)F)c1` [compound 1895], the EC50 is 20 to 100 µM and the Emax was in the range of 160 to 199%.

For `COc1ncc(NC(=O)c2ncc(-c3ccccc3)o2)cc1S(=O)(=O)Nc1cc(F)c(C)cc1C#N` [compound 1898], the EC50 fell in the range of 20 to 100 µM and the maximal response (Emax) was in the range of 200 to 300%.

Take `COc1ncc(NC(=O)c2ncc(-c3ccccc3)o2)cc1S(=O)(=O)Nc1ccc2c(n1)CCC2` [compound 1908]: the EC50 is 20 to 100 µM and the Emax lay within 119 to 159%.

Consider `COc1ncc(NC(=O)c2csc(-c3ccccc3)n2)cc1S(=O)(=O)Nc1c(C#N)cnn1C` [compound 1911], for which the EC50 was 20 to 100 µM and the Emax is 119 to 159%.

Turning to `COc1ncc(NC(=O)c2csc(-c3ccccc3)n2)cc1S(=O)(=O)Nc1nnn(Cc2ccccc2)n1` [compound 1912], the concentration for a half-maximal effect (EC50) fell in the range of 20 to 100 µM and the Emax lay within 200 to 300%.

With `COc1ncc(NC(=O)c2csc(-c3ccccc3)n2)cc1S(=O)(=O)Nc1ccc2nn[nH]c2c1` [compound 1926], the EC50 is 20 to 100 µM and the Emax was 119 to 159%.
